Consider 1 compound from article PMC4416304, “Nickel quercetinase, a “promiscuous” metalloenzyme: metal incorporation and metal ligand substitution studies” (BMC Biochemistry, 2015).

Holding throughout (assay): intrinsic protein fluorescence titration
What all share (assay type): binding

The target of assay [1] is T1, QueD (Ni-QueD; Streptomyces quercetinase) (Streptomyces sp. FLA, UniProt A2VA43, E76D).
T1 construct: C-terminal StrepII tag kept (pET23a-queD-Strep), E. coli BL21(DE3) pLysS grown with Ni2+; monocupin, native enzyme a dimer
T1 sequence (A2VA43 1-186 E76D): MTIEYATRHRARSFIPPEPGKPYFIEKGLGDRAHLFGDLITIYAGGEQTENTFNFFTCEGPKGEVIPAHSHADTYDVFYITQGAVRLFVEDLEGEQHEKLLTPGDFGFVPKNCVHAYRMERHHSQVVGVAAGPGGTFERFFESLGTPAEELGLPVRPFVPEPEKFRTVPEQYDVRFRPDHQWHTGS
The source says:
(§1) intrinsic protein fluorescence titration on QueD (Ni-QueD; Streptomyces quercetinase)

For assay [2], the target named is T2, QueD (Ni-QueD; Streptomyces quercetinase) (Streptomyces sp. FLA, UniProt A2VA43, E76H).
T2 construct: C-terminal StrepII tag kept (pET23a-queD-Strep), E. coli BL21(DE3) pLysS grown with Ni2+; monocupin, native enzyme a dimer
T2 sequence (A2VA43 1-186 E76H): T1 sequence (A2VA43 1-186 E76D) with D76H
Description: as §1

In assay [3] the target is T3, QueD (Ni-QueD; Streptomyces quercetinase) (Streptomyces sp. FLA, UniProt A2VA43, H115A).
T3 construct: C-terminal StrepII tag kept (pET23a-queD-Strep), E. coli BL21(DE3) pLysS grown with Ni2+; monocupin, native enzyme a dimer
T3 sequence (A2VA43 1-186 H115A): T1 sequence (A2VA43 1-186 E76D) with D76E, H115A
Description: as §1

The target of assay [4] is T4, QueD (Ni-QueD; Streptomyces quercetinase) (Streptomyces sp. FLA, UniProt A2VA43, H69A).
T4 construct: C-terminal StrepII tag kept (pET23a-queD-Strep), E. coli BL21(DE3) pLysS grown with Ni2+; monocupin, native enzyme a dimer
T4 sequence (A2VA43 1-186 H69A): T1 sequence (A2VA43 1-186 E76D) with H69A, D76E
Description: as §1

Assay [5] deals with T5, QueD (Ni-QueD; Streptomyces quercetinase) (Streptomyces sp. FLA, UniProt A2VA43, H71A).
T5 construct: C-terminal StrepII tag kept (pET23a-queD-Strep), E. coli BL21(DE3) pLysS grown with Ni2+; monocupin, native enzyme a dimer
T5 sequence (A2VA43 1-186 H71A): T1 sequence (A2VA43 1-186 E76D) with H71A, D76E
Description: as §1

Assay [6] has as its target T6, QueD (Ni-QueD; Streptomyces quercetinase) (Streptomyces sp. FLA, UniProt A2VA43).
T6 construct: C-terminal StrepII tag kept (pET23a-queD-Strep), E. coli BL21(DE3) pLysS grown with Ni2+; monocupin, native enzyme a dimer
T6 sequence (A2VA43 1-186): T1 sequence (A2VA43 1-186 E76D) with D76E
The source says: intrinsic protein fluorescence titration on QueD (Ni-QueD; Streptomyces quercetinase) | The K D value of the complex of Ni-QueD with quercetin

Numbering of substitutions follows the chain as printed.

Broadly, the Kd is the constant that tells how readily two partners part at equilibrium. High values mean weaker binding, low ones tighter binding. For `O=c1c(O)c(-c2ccc(O)c(O)c2)oc2cc(O)cc(O)c12` [quercetin], the dissociation constant (Kd) in assay [1] is 4 µM; in assay [2], 1300 nM; in assay [3] it was 2600 nM; in assay [4], 3.1 µM; in assay [5], 10.4 µM; in assay [6] it was 10.1 ± 2.9 µM.
